Test results: patent EP0796243B1, “DIAMINOCYCLOBUTENE-3,4-DIONES” (AMERICAN HOME PRODUCTS CORPORATION, priority 1994, dated 1996)

tested on: Isolated Rat Bladder Strips; assay: Inhibition of contractions in isolated rat bladder strips (KCl-enhanced contractile activity); set-up: species or system Sprague-Dawley rats; details: 0.5 h, concentration required to elicit 50% inhibition of pre-drug contractile activity, additional 15 mM KCl, 30 minute challenge per concentration, value ± spread as printed
Description: Sprague-Dawley rats (150-200 g) are rendered unconscious by CO2 asphyxiation and then euthanized by cervical dislocation. The bladder is removed into warm (37 deg.C) physiological salt solution (PSS) of the following composition (mM): NaCl, 118.4; KCl, 4.7; CaCl2, 2.5; […]; NaHCO3, 24.9; KH2PO4, 1.2; glucose, 11.1; EDTA, 0.023; gassed with […]; pH 7.4. The bladder is opened and then cut into strips 1-2 mm in width and 7-10 mm in length. The strips are subsequently suspended in a 10 mL tissue bath under an initial resting tension of 1.5 g. The strips are held in place by two surgical clips one of which is attached to a fixed hook while the other is attached to an isometric force transducer. […] The carbachol is then washed out and the tissue allowed to relax to its resting level of activity. Following a further 30 min period of recovery an additional 15 mM KCl are introduced into the tissue bath. This increase in KCI concentration results in a large increase in the amplitude of spontaneous contractions (and initiation of contractions in previously quiescent strips) superimposed upon a small increase in basal tone. Following stabilization of this enhanced level of contractile activity, incremental increases in the concentration of test compound or vehicle are introduced into the tissue bath. Contractile activity is measured for each compound or vehicle concentration during the last minute of a 30 minute challenge.
The isometric force developed by the bladder strips is measured using a […] to elicit 50% inhibition of pre-drug contractile activity (IC50 concentration) is calculated from this concentration-response curve.

| Structure (SMILES) | IC50 [nM] |
| --- | --- |
| CC(=O)N(c1ccc(C#N)cc1)c1c(NC2CC3CCC2C3)c(=O)c1=O (racemic) [Example 17, N-(endo)-[2-(Bicyclo[2,2,1]hept-2-ylamino)-3,4-dioxo-cyclobut-1-enyl]-N-(4-cyano-phenyl)-acetamide] | 1840 ± 360 |
| CC(=O)N(c1ccncc1)c1c(NC2CC3CCC2C3)c(=O)c1=O (racemic) [Example 21, (endo)-N-[2-(Bicyclo[2,2,1]hept-2-ylamino)-3,4-dioxo-cyclobut-1-enyl]-N-(pyridin-4-yl)-acetamide] | 10600 |
| CCC(=O)N(c1ccc(C#N)cc1)c1c(NC(C)C(C)(C)C)c(=O)c1=O (stereo not drawn) [Example 1, N-(4-Cyano-phenyl)-N-[3,4-dioxo-2-(1,2,2-trimethyl-propylamino)-cyclobut-1-enyl]-propionamide] | 500 |
| CC(Nc1c(N(C(=O)c2ccccc2)c2ccc(C#N)cc2)c(=O)c1=O)C(C)(C)C (stereo not drawn) [Example 2, N-(4-Cyano-phenyl)-N-[3,4-dioxo-2-(1,2,2-trimethyl-propylamino)-cyclobut-1-enyl]-benzamide] | 290 ± 40 |
| CCCCCC(=O)N(c1ccc(C#N)cc1)c1c(NC(C)C(C)(C)C)c(=O)c1=O (stereo not drawn) [Example 5, Hexanoic acid (4-cyano-phenyl)-[3,4-dioxo-2-(1,2,2-trimethyl-propylamino)-cyclobut-1-enyl]-amide] | 350 ± 100 |
| CC(C)C(=O)N(c1ccc(C#N)cc1)c1c(NC(C)C(C)(C)C)c(=O)c1=O (stereo not drawn) [Example 6, N-(4-Cyano-phenyl)-N-[3,4-dioxo-2-(1,2,2-trimethyl-propylamino)-cyclobut-1-enyl]-isobutyramide] | 570 ± 200 |
| CC(Nc1c(N(C(=O)C=Cc2ccccc2)c2ccc(C#N)cc2)c(=O)c1=O)C(C)(C)C (stereo not drawn) [Example 7, N-(4-Cyano-phenyl)-N-[3,4-dioxo-2-(1,2,2-trimethyl-propylamino)cyclobut-1-enyl]-3-phenyl-acrylamide] | 370 ± 80 |
| CC(=O)N(c1ccc(C#N)cc1)c1c(NC(C)C(C)(C)C)c(=O)c1=O (stereo not drawn) [Example 9, N-(4-Cyano-phenyl)-N-[3,4-dioxo-2-(1,2,2-trimethyl-propylamino)-cyclobut-1-enyl]-acetamide] | 230 ± 50 |
| CC(=O)N(c1ccc(C#N)cc1)c1c(N[C@H](C)C(C)(C)C)c(=O)c1=O [Example 10, (R)-(-)-N-(4-Cyano-phenyl)-N-[3,4-dioxo-2-(1,2,2-trimethyl-propylamino)-cyclobut-1-enyl]-acetamide] | 310 ± 50 |
| CC(=O)N(c1ccc(C#N)cc1)c1c(NC(C)C)c(=O)c1=O [Example 11, N-(4-Cyano-phenyl)-N-[3,4-dioxo-2-isopropylamino-cyclobut-1-enyl]-acetamide] | 9700 ± 4100 |
| CC(=O)N(c1ccc(C#N)cc1)c1c(NC(C)C(C)C)c(=O)c1=O (stereo not drawn) [Example 13, N-(4-Cyano-phenyl)-N-[2-(1,2-dimethyl-propylamino)-3,4-dioxo-cyclobut-1-enyl]-acetamide] | 200 ± 100 |
| CC(=O)N(c1cccc(C#N)c1)c1c(NC(C)C(C)(C)C)c(=O)c1=O (stereo not drawn) [Example 14, N-(3-Cyano-phenyl)-N-[3,4-dioxo-2-(1,2,2-trimethyl-propylamino)-cyclobut-1-enyl]-acetamide] | 3200 ± 920 |
| CCCCNc1c(N(C(C)=O)c2ccc(C#N)cc2)c(=O)c1=O [Example 16, N-(2-Butylamino-3,4-dioxo-cyclobut-1-enyl)-N-(4-cyano-phenyl)-acetamide] | 1240 ± 540 |
| CC(=O)N(c1cccnc1)c1c(N[C@H](C)C(C)(C)C)c(=O)c1=O [Example 23, (R)-N-[3,4-Dioxo-2-(1,2,2-trimethyl-propylamino)-cyclobut-1-enyl]-N-(pyridin-3-yl)-acetamide] | 7200 ± 1600 |
| CC(=O)N(c1ccncc1)c1c(N[C@H](C)C(C)(C)C)c(=O)c1=O [Example 24, (R)-N-[3,4-Dioxo-2-(1,2,2-trimethyl-propylamino)-cyclobut-1-enyl]-N-(pyridin-4-yl)-acetamide] | 2500 ± 200 |
| CC(C)CC(=O)N(c1ccncc1)c1c(N[C@H](C)C(C)(C)C)c(=O)c1=O [Example 25, (R)-N-[3,4-Dioxo-2-(1,2,2-trimethyl-propylamino)-cyclobut-1-enyl]-3-methyl-N-(pyridin-4-yl)-butyramide] | 10800 ± 1600 |
| CCCCC(=O)N(c1ccncc1)c1c(N[C@H](C)C(C)(C)C)c(=O)c1=O [Example 26, (R)-(-)-N-(3,4-Dioxo-2-(1,2,2-trimethyl-propylamino)-cyclobut-1-enyl]-N-(pyridin-4-yl)-pentylamide] | 4900 ± 1200 |
| CCCC(=O)N(c1ccc(C#N)cc1CC)c1c(N[C@H](C)C(C)(C)C)c(=O)c1=O [Example 27, (R)-(-)-N-(4-Cyano-2-ethyl-phenyl)-N-[3,4-dioxo-2-(1,2,2-trimethyl-propylamino)-cyclobut-1-enyl]-butyramide] | 170 ± 4 |
| CCC(=O)N(c1ccc(C#N)cc1CC)c1c(N[C@H](C)C(C)(C)C)c(=O)c1=O [Example 28, (R)-N-(4-Cyano-2-ethyl-phenyl)-N-[3,4-dioxo-2-(1,2,2-trimethyl-propylamino)-cyclobut-1-enyl]-propionamide] | 220 ± 200 |
| C/C=C/C(=O)N(c1ccc(C#N)cc1CC)c1c(N[C@H](C)C(C)(C)C)c(=O)c1=O [Example 29, (R)-(-)-N-(4-Cyano-2-ethylphenyl)-N-[3,4-dioxo-2-(1,2,2-trimethyl-propylamino)-cyclobut-1-enyl]-crotonamide] | 270 ± 20 |
| CCc1cc(C#N)ccc1N(C(C)=O)c1c(N[C@H](C)C(C)(C)C)c(=O)c1=O [Example 30, (R)-(-)-N-(4-Cyano-2-ethyl-phenyl)-N-[3,4-dioxo-2-(1,2,2-trimethyl-propylamino)-cyclobut-1-enyl]-acetamide] | 350 ± 100 |
| CCCCC(=O)N(c1ccc(C#N)cc1CC)c1c(N[C@H](C)C(C)(C)C)c(=O)c1=O [Example 31, (R)-(-)-N-(4-Cyano-2-ethyl-phenyl)-N-[3,4-dioxo-2-(1,2,2-trimethyl-propylamino)-cyclobut-1-enyl]-pentanamide] | 610 ± 200 |
| CCc1cc(C#N)ccc1N(C(=O)C1CCCCC1)c1c(N[C@H](C)C(C)(C)C)c(=O)c1=O [Example 32, (R)-(-)-N-(4-cyano-2-ethyl-phenyl)-N-[3,4-dioxo-2-(1,2,2-trimethyl-propylamino)-cyclobut-1-enyl]-cyclohexanecarboxamide] | 630 ± 65 |
| CC(=O)N(c1ccc(C#N)c(Cl)c1)c1c(N[C@H](C)C(C)(C)C)c(=O)c1=O [Example 33, (R)-(-)-N-(3-Chloro-4-cyano-phenyl)-N-[3,4-dioxo-2-(1,2,2-trimethyl-propylamino)-cyclobut-1-enyl]-acetamide] | 190 ± 10 |
